{"source": "patent US20040023924A1", "about": "“Use of xyloglucan polymers and oligomers, and derivative compounds, as phytosanitary products and biofertilizers” (priority 2000, published 2004)", "key": {"[1]": {"tested_on": "Rubus fruticosus protoplasts", "assay": "Elicitation of an oxidative burst: generation of H2O2 (pyranine quenching)", "type": "cell-based", "details": "25° C.", "protocol": "Preparation of Rubus fruticosus protoplasts according to Vargas-Rechia (1998). The protoplast yield is of the order of 70 to 85% of the initial number of cells used; the viability of the protoplasts, of the order of 90 to 95%, was checked using Evans blue indicator.\nH2O2 assay according to Apostol et al. (1989). Incubation at different temperatures of 1.10^6 protoplasts in microplate wells in the presence of 2 μM pyranine λex 405 nm, λcm 512 nm), of the elicitor (0 to 100 μM): 2′-fucosyl-lactose (compound A), xyloglucan XXFGol, corresponding to the reduced form of fucosylated nonasaccharide of which the sugar X4 is in reduced form (compound B). The variations in pyranine fluorescence (ΔF512 min^−1) allow H2O2 assay.\nEvaluation of the experimental data: The reaction rate is given by (ΔF512 min^−1). At least three kinetic curves are plotted per sample and per experimental condition. One point on the graph corresponds to the slope of the regression curve deduced from at least 6 kinetic curves.\nThe oxidative “burst” is evaluated according to the “quenching ” of the pyranine at 25° C.; the 100% reference value corresponds to the fluorescence in the controls (non-elicited protoplast suspensions)"}, "[2]": {"tested_on": "glutathione-reductase (EC 1.6. 4.2)", "assay": "Elicitation of glutathione-reductase activity in protoplasts", "type": "cell-based, Rubus fruticosus L.", "details": "for Optimal glutathione reductase elicitation response (100% = non-elicited controls): at the optimal dose", "text": "Preparation of Rubus fruticosus L. protoplasts according to Vargas-Rechia et al. (1998). The protoplast yield is of the order of 70 to 85% of the initial number of cells used; the viability of the protoplasts, of the order of 90 to 95%, was checked using Evans blue indicator.\nGlutathione-reductase (GR) activity assay according to Jahnke L S et al. (1991):\nGSSG (glutathione in oxidized form) is reduced to GSH (glutathione in reduced form) by the enzyme glutathione-reductase (EC 1.6. 4.2); the reaction is coupled with the oxidation of NADPH to NADP in the catalytic cycle (glutathione, glutathione-reductase, NADPH). The glutathione-reductase activity is measured by evaluating the formation of NADP in the medium, which is carried out by monitoring the absorbance reduction at 340 nm.\nTest: 4.10^6 protoplasts in 1 ml of Tris-HCl buffer (pH 4.8) are incubated at 10° C., 15° C., 25° C. in the presence of the elicitor (0 to 100 μM): 2′-fucosyl lactose (compound A), xyloglucan XXFGol (compound B). After interaction for 10 minutes, an enzymatic extract is prepared according to Jahnke et al. (1991), and a 16.000 g aliquot of the supernatant (equivalent to 1 μg of proteins) is introduced into the pH 7.8 reaction medium (80 mM K2PO4, 500 μM GSSG, 150 μM NADPH, 200 μM DTPA) for the glutathione-reductase activity assay; the A340 recording is carried out for 1 minute using a Beckman D U 640 spectrophotometer.\nEvaluation of the experimental data: The reaction rate is given by ΔA340 min^−1. At least three kinetic curves are plotted per experimental condition and per sample. One point on the graph corresponds to the value of the slope of the regression curve deduced from at least 6 kinetic curves.\nThe elicitation response is evaluated by measuring the formation of NADP at 340 nm. The 100% reference value corresponds to the NADP content in the controls (non-elicited protoplast suspensions)."}, "vine": {"tested_on": "vine", "assay": "Induction of cold resistance in the vine (cold protection index after foliar spraying)", "type": "in vivo, vine (variety Chenin)", "details": "vine plants", "protocol": "Plants originating from different vine varieties (Chenin, Grolleau, Carignan, Cabernet sauvignon, Cabernet Sauvignon, Pinot noir, Merlot, Chardonnay, Gamay etc.) are used for the study. Each sample, comprising 5 to 10 plants, is treated with foliar spraying at the end of the bud development (starting from vegetative stage 7 on the BBCH scale), or during the inflorescence development period (starting from vegetative stage 12) or at the start of flowering (as from stage 19), with the elicitor (oligomer: XXFG; derivative: 2′-fucosyl lactose) in solution at a variable dose (0.03 mg/l ≦dose≦3.3 mg/l; the spraying of 2.5 ml of solution per plant is carried out using a hand sprayer (deviation of +/−1%).\nAfter treatment, the plants are exposed to cold stress of variable duration and intensity (for example, temperature varying from −2° C. to −5° C.; duration less than or equal to 240 minutes).\nAfter exposure to the cold, the plants are placed in a climatic chamber at 20° C. with a 12-hour day/night alternation. […] The effects of the cold are evaluated by observing the foliar necroses induced by frost and the plants are kept for several months in order to monitor their subsequent development.\nThe proportion P (%) of foliar necroses observed 3 hours or 24 hours or 48 hours or 72 hours after the cold stress is counted, and the results are expressed by the protection index I=(100-P) %. […]"}}}
{"smiles": "C[C@@H]1O[C@@H](O[C@H]2[C@H](O[C@H]3[C@H](O)[C@@H](O)[C@H](O)O[C@@H]3CO)O[C@H](CO)[C@H](O)[C@@H]2O)[C@@H](O)[C@H](O)[C@@H]1O", "note": "[compound A, α-L-Fuc(1→2)β-D-Gal(1→4)β-D-Glc]", "values": [{"measurement": "Peroxide accumulation, effect of temperature", "setting": "[1]; 10 nM, 20° C., 15° C., 10° C.", "value": "lower at a low temperature"}, {"measurement": "Elicitor dose of optimal response, generation of H2O2", "setting": "[1]; pyranine quenching", "value": 10, "unit": "nM"}, {"measurement": "Optimal response, generation of H2O2 (100% = non-elicited controls)", "setting": "[1]; at the optimal dose", "value": 225, "unit": "%"}, {"measurement": "Elicitor dose of optimal glutathione reductase elicitation response", "setting": "[2]; 10° C.", "value": 25, "unit": "nM"}, {"measurement": "Optimal glutathione reductase elicitation response (100% = non-elicited controls)", "setting": "[2]; 10° C.", "value": 2500, "unit": "%"}, {"measurement": "Elicitor dose of optimal glutathione reductase elicitation response", "setting": "[2]; 15° C.", "value": 100, "unit": "nM"}, {"measurement": "Optimal glutathione reductase elicitation response (100% = non-elicited controls)", "setting": "[2]; 15° C.", "value": 780, "unit": "%"}, {"measurement": "Glutathione reductase elicitation response", "setting": "[2]; 25° C.", "value": "no significant response"}, {"measurement": "Cold-resistance-inducer effect, efficiency compared with XXFG", "setting": "vine", "value": "equal or slightly lower efficiency"}]}
